Results as given in patent US20220220068A1 (published 2022).
Where a name gives a salt, the structure may show the parent alone.

Row | SMILES | melting point [°C]
1 | CN/C(=N/c1cc(C)c(C(=O)OCc2ccccc2C)cc1C)OC | 90 to 92
2 | CCN(C)/C=N/c1ccc(C(=O)OCc2cccc(C(F)(F)F)c2)c(C)c1C (as salt: hydrochloride) | 172 to 176
